Test results as given in paper PMC11822212, “High-throughput screening identifies Aurora kinase B as a critical therapeutic target for Merkel cell carcinoma” (Nature Communications, 2025).

Key:
Type in all cases: cell-based, human
MCC13 cells (VN-MCC) = test: qHTS cell viability (CellTiter-Glo, 72 h; primary and follow-up small molecule screen); settings: MCC13, 72h
MCC26 cells (VN-MCC) = test: as above; settings: MCC26, 72h
UISO cells (VN-MCC) = test: as above; settings: UISO, 72h
WAGA cells (VP-MCC) = test: as above; settings: WAGA, 72h
MKL-1 cells (VP-MCC) = test: as above; settings: MKL1, 72h
MKL-2 cells (VP-MCC) = test: as above; settings: MKL2, 72h
[1] = system: VP-MCC cell lines (WAGA, MKL-1, MKL-2); test: qHTS cell viability, VP-MCC cell lines as a group (mean AUC, VP.MCC.avg); settings: re-tested in triplicate, follow-up screen

## O=C(Nc1cccc(Cl)c1)Nc1ncc(CCNc2ncnc3ccsc23)s1 [SNS-314, reference compound]
MCC13 cells (VN-MCC); Log (M) -5.33646
  Percent viability: 49.0%
MCC13 cells (VN-MCC); Log (M) -5.81358
  Percent viability: 56.7%
MCC13 cells (VN-MCC); Log (M) -6.2907
  Percent viability: 82.7%
MCC13 cells (VN-MCC); Log (M) -6.76782
  Percent viability: 93.1%
MCC13 cells (VN-MCC); Log (M) -7.24494
  Percent viability: 90.9%
MCC13 cells (VN-MCC); Log (M) -7.72207
  Percent viability: 100.8%
MCC13 cells (VN-MCC); Log (M) -8.19919
  Percent viability: 94.5%
MCC13 cells (VN-MCC); Log (M) -8.67631
  Percent viability: 106.6%
MCC13 cells (VN-MCC); Log (M) -9.15343
  Percent viability: 125.4%
MCC13 cells (VN-MCC); Log (M) -9.63055
  Percent viability: 116.5%
MCC13 cells (VN-MCC); Log (M) -10.1077
  Percent viability: 92.5%
MCC26 cells (VN-MCC); Log (M) -5.33646
  Percent viability: 72.0%
MCC26 cells (VN-MCC); Log (M) -5.81358
  Percent viability: 84.0%
MCC26 cells (VN-MCC); Log (M) -6.2907
  Percent viability: 86.8%
MCC26 cells (VN-MCC); Log (M) -6.76782
  Percent viability: 90.3%
MCC26 cells (VN-MCC); Log (M) -7.24494
  Percent viability: 93.9%
MCC26 cells (VN-MCC); Log (M) -7.72207
  Percent viability: 97.6%
MCC26 cells (VN-MCC); Log (M) -8.19919
  Percent viability: 94.0%
MCC26 cells (VN-MCC); Log (M) -8.67631
  Percent viability: 99.1%
MCC26 cells (VN-MCC); Log (M) -9.15343
  Percent viability: 95.5%
MCC26 cells (VN-MCC); Log (M) -9.63055
  Percent viability: 91.7%
MCC26 cells (VN-MCC); Log (M) -10.1077
  Percent viability: 91.9%
UISO cells (VN-MCC); Log (M) -5.33646
  Percent viability: 21.7%
UISO cells (VN-MCC); Log (M) -5.81358
  Percent viability: 56.9%
UISO cells (VN-MCC); Log (M) -6.2907
  Percent viability: 70.9%
UISO cells (VN-MCC); Log (M) -6.76782
  Percent viability: 75.0%
UISO cells (VN-MCC); Log (M) -7.24494
  Percent viability: 93.3%
UISO cells (VN-MCC); Log (M) -7.72207
  Percent viability: 86.0%
UISO cells (VN-MCC); Log (M) -8.19919
  Percent viability: 89.1%
UISO cells (VN-MCC); Log (M) -8.67631
  Percent viability: 101.5%
UISO cells (VN-MCC); Log (M) -9.15343
  Percent viability: 108.7%
UISO cells (VN-MCC); Log (M) -9.63055
  Percent viability: 96.8%
UISO cells (VN-MCC); Log (M) -10.1077
  Percent viability: 98.0%
WAGA cells (VP-MCC); Log (M) -5.33646
  Percent viability: 42.9%
WAGA cells (VP-MCC); Log (M) -5.81358
  Percent viability: 32.8%
WAGA cells (VP-MCC); Log (M) -6.2907
  Percent viability: 39.2%
WAGA cells (VP-MCC); Log (M) -6.76782
  Percent viability: 41.9%
WAGA cells (VP-MCC); Log (M) -7.24494
  Percent viability: 24.7%
WAGA cells (VP-MCC); Log (M) -7.72207
  Percent viability: 26.4%
WAGA cells (VP-MCC); Log (M) -8.19919
  Percent viability: 38.2%
WAGA cells (VP-MCC); Log (M) -8.67631
  Percent viability: 100.0%
WAGA cells (VP-MCC); Log (M) -9.15343
  Percent viability: 100.0%
WAGA cells (VP-MCC); Log (M) -9.63055
  Percent viability: 102.6%
WAGA cells (VP-MCC); Log (M) -10.1077
  Percent viability: 100.0%
MKL-1 cells (VP-MCC); Log (M) -5.33646
  Percent viability: 37.7%
MKL-1 cells (VP-MCC); Log (M) -5.81358
  Percent viability: 37.4%
MKL-1 cells (VP-MCC); Log (M) -6.2907
  Percent viability: 42.7%
MKL-1 cells (VP-MCC); Log (M) -6.76782
  Percent viability: 49.2%
MKL-1 cells (VP-MCC); Log (M) -7.24494
  Percent viability: 26.9%
MKL-1 cells (VP-MCC); Log (M) -7.72207
  Percent viability: 28.2%
MKL-1 cells (VP-MCC); Log (M) -8.19919
  Percent viability: 56.1%
MKL-1 cells (VP-MCC); Log (M) -8.67631
  Percent viability: 100.9%
MKL-1 cells (VP-MCC); Log (M) -9.15343
  Percent viability: 107.4%
MKL-1 cells (VP-MCC); Log (M) -9.63055
  Percent viability: 103.4%
MKL-1 cells (VP-MCC); Log (M) -10.1077
  Percent viability: 99.7%
MKL-2 cells (VP-MCC); Log (M) -5.33646
  Percent viability: 20.8%
MKL-2 cells (VP-MCC); Log (M) -5.81358
  Percent viability: 47.8%
MKL-2 cells (VP-MCC); Log (M) -6.2907
  Percent viability: 56.2%
MKL-2 cells (VP-MCC); Log (M) -6.76782
  Percent viability: 47.9%
MKL-2 cells (VP-MCC); Log (M) -7.24494
  Percent viability: 43.4%
MKL-2 cells (VP-MCC); Log (M) -7.72207
  Percent viability: 52.1%
MKL-2 cells (VP-MCC); Log (M) -8.19919
  Percent viability: 55.1%
MKL-2 cells (VP-MCC); Log (M) -8.67631
  Percent viability: 62.3%
MKL-2 cells (VP-MCC); Log (M) -9.15343
  Percent viability: 100.0%
MKL-2 cells (VP-MCC); Log (M) -9.63055
  Percent viability: 104.9%
MKL-2 cells (VP-MCC); Log (M) -10.1077
  Percent viability: 91.4%
[1]
  VP-MCC viability (in words): consistently and potently reduced VP-MCC viability

## CCS(=O)(=O)c1cccc(-c2cc(C(=O)NC3CCN(C)CC3)c(C)c3[nH]c4ncc(C)cc4c23)c1 [TAK-901, reference compound]
MCC13 cells (VN-MCC); Log (M) -5.33646
  Percent viability: 26.1%
MCC13 cells (VN-MCC); Log (M) -5.81358
  Percent viability: 79.3%
MCC13 cells (VN-MCC); Log (M) -6.2907
  Percent viability: 86.5%
MCC13 cells (VN-MCC); Log (M) -6.76782
  Percent viability: 99.0%
MCC13 cells (VN-MCC); Log (M) -7.24494
  Percent viability: 119.7%
MCC13 cells (VN-MCC); Log (M) -7.72207
  Percent viability: 113.0%
MCC13 cells (VN-MCC); Log (M) -8.19919
  Percent viability: 118.4%
MCC13 cells (VN-MCC); Log (M) -8.67631
  Percent viability: 116.9%
MCC13 cells (VN-MCC); Log (M) -9.15343
  Percent viability: 104.5%
MCC13 cells (VN-MCC); Log (M) -9.63055
  Percent viability: 119.9%
MCC13 cells (VN-MCC); Log (M) -10.1077
  Percent viability: 98.3%
MCC26 cells (VN-MCC); Log (M) -5.33646
  Percent viability: 25.9%
MCC26 cells (VN-MCC); Log (M) -5.81358
  Percent viability: 20.6%
MCC26 cells (VN-MCC); Log (M) -6.2907
  Percent viability: 33.0%
MCC26 cells (VN-MCC); Log (M) -6.76782
  Percent viability: 64.5%
MCC26 cells (VN-MCC); Log (M) -7.24494
  Percent viability: 80.5%
MCC26 cells (VN-MCC); Log (M) -7.72207
  Percent viability: 93.5%
MCC26 cells (VN-MCC); Log (M) -8.19919
  Percent viability: 87.4%
MCC26 cells (VN-MCC); Log (M) -8.67631
  Percent viability: 96.2%
MCC26 cells (VN-MCC); Log (M) -9.15343
  Percent viability: 90.5%
MCC26 cells (VN-MCC); Log (M) -9.63055
  Percent viability: 91.5%
MCC26 cells (VN-MCC); Log (M) -10.1077
  Percent viability: 63.2%
UISO cells (VN-MCC); Log (M) -5.33646
  Percent viability: 2.3%
UISO cells (VN-MCC); Log (M) -5.81358
  Percent viability: 2.9%
UISO cells (VN-MCC); Log (M) -6.2907
  Percent viability: 16.4%
UISO cells (VN-MCC); Log (M) -6.76782
  Percent viability: 39.6%
UISO cells (VN-MCC); Log (M) -7.24494
  Percent viability: 65.2%
UISO cells (VN-MCC); Log (M) -7.72207
  Percent viability: 80.6%
UISO cells (VN-MCC); Log (M) -8.19919
  Percent viability: 77.5%
UISO cells (VN-MCC); Log (M) -8.67631
  Percent viability: 101.9%
UISO cells (VN-MCC); Log (M) -9.15343
  Percent viability: 102.4%
UISO cells (VN-MCC); Log (M) -9.63055
  Percent viability: 103.6%
UISO cells (VN-MCC); Log (M) -10.1077
  Percent viability: 103.5%
WAGA cells (VP-MCC); Log (M) -5.33646
  Percent viability: 14.8%
WAGA cells (VP-MCC); Log (M) -5.81358
  Percent viability: 27.2%
WAGA cells (VP-MCC); Log (M) -6.2907
  Percent viability: 24.4%
WAGA cells (VP-MCC); Log (M) -6.76782
  Percent viability: 45.2%
WAGA cells (VP-MCC); Log (M) -7.24494
  Percent viability: 29.7%
WAGA cells (VP-MCC); Log (M) -7.72207
  Percent viability: 26.6%
WAGA cells (VP-MCC); Log (M) -8.19919
  Percent viability: 95.5%
WAGA cells (VP-MCC); Log (M) -8.67631
  Percent viability: 121.9%
WAGA cells (VP-MCC); Log (M) -9.15343
  Percent viability: 112.0%
WAGA cells (VP-MCC); Log (M) -9.63055
  Percent viability: 114.1%
WAGA cells (VP-MCC); Log (M) -10.1077
  Percent viability: 123.7%
MKL-1 cells (VP-MCC); Log (M) -5.33646
  Percent viability: 3.5%
MKL-1 cells (VP-MCC); Log (M) -5.81358
  Percent viability: 27.5%
MKL-1 cells (VP-MCC); Log (M) -6.2907
  Percent viability: 14.2%
MKL-1 cells (VP-MCC); Log (M) -6.76782
  Percent viability: 38.9%
MKL-1 cells (VP-MCC); Log (M) -7.24494
  Percent viability: 42.7%
MKL-1 cells (VP-MCC); Log (M) -7.72207
  Percent viability: 48.2%
MKL-1 cells (VP-MCC); Log (M) -8.19919
  Percent viability: 61.6%
MKL-1 cells (VP-MCC); Log (M) -8.67631
  Percent viability: 102.5%
MKL-1 cells (VP-MCC); Log (M) -9.15343
  Percent viability: 100.0%
MKL-1 cells (VP-MCC); Log (M) -9.63055
  Percent viability: 106.9%
MKL-1 cells (VP-MCC); Log (M) -10.1077
  Percent viability: 62.6%
MKL-2 cells (VP-MCC); Log (M) -5.33646
  Percent viability: 3.8%
MKL-2 cells (VP-MCC); Log (M) -5.81358
  Percent viability: 12.3%
MKL-2 cells (VP-MCC); Log (M) -6.2907
  Percent viability: 44.7%
MKL-2 cells (VP-MCC); Log (M) -6.76782
  Percent viability: 52.1%
MKL-2 cells (VP-MCC); Log (M) -7.24494
  Percent viability: 44.0%
MKL-2 cells (VP-MCC); Log (M) -7.72207
  Percent viability: 44.3%
MKL-2 cells (VP-MCC); Log (M) -8.19919
  Percent viability: 48.4%
MKL-2 cells (VP-MCC); Log (M) -8.67631
  Percent viability: 94.9%
MKL-2 cells (VP-MCC); Log (M) -9.15343
  Percent viability: 110.4%
MKL-2 cells (VP-MCC); Log (M) -9.63055
  Percent viability: 106.9%
MKL-2 cells (VP-MCC); Log (M) -10.1077
  Percent viability: 102.9%
[1]
  VP-MCC viability (in words): consistently and potently reduced VP-MCC viability
